Measurements published in ChEMBL document CHEMBL1201862, “PubChem BioAssay data set” (2004).
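Protocol summary: plate cells (96-well), add compound at 5 concentrations, incubate 48 h, interpolate endpoints linearly. GI50 = concentration required for 50% inhibition of growth.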 The source made the active and inactive calls. Cut-off read from the data, not from the text of the source: active = GI50 up to about 1.1 µM and inactive = higher.

Columns and labels:
Assay in all cases: growth of human tumour cells (NCI), 48 h
ACHN = tested on: ACHN
CAKI-1 = tested on: CAKI-1
CCRF-CEM = tested on: CCRF-CEM
HOP-62 = tested on: HOP-62
KM12 = tested on: KM12
MOLT-4 = tested on: MOLT-4
OVCAR-3 = tested on: OVCAR-3
OVCAR-4 = tested on: OVCAR-4
OVCAR-8 = tested on: OVCAR-8
SK-MEL-28 = tested on: SK-MEL-28
SK-MEL-5 = tested on: SK-MEL-5
SN12C = tested on: SN12C
SNB-19 = tested on: SNB-19
SNB-75 = tested on: SNB-75
TK-10 = tested on: TK-10
U-251 = tested on: U-251

COC1=CC(=O)c2ccc(C(C)C)cc2C1(C)C1=NC(C)(C)CO1 (stereo unspecified)
GI50 (ACHN): > 100 µM (inactive) | GI50 (CAKI-1): > 100 µM (inactive) | GI50 (CCRF-CEM): > 100 µM (inactive) | GI50 (HOP-62): > 100 µM (inactive) | GI50 (KM12): > 100 µM (inactive) | GI50 (MOLT-4): 81.7 µM (inactive) | GI50 (OVCAR-3): > 100 µM (inactive) | GI50 (OVCAR-4): > 100 µM (inactive) | GI50 (OVCAR-8): > 100 µM (inactive) | GI50 (SK-MEL-28): > 100 µM (inactive) | GI50 (SK-MEL-5): > 100 µM (inactive) | GI50 (SN12C): > 100 µM (inactive) | GI50 (SNB-19): > 100 µM (inactive) | GI50 (SNB-75): 80.5 µM (inactive) | GI50 (TK-10): > 100 µM (inactive) | GI50 (U-251): > 100 µM (inactive)

CC(=O)NC(CCCCNC(=O)N(C)N=O)C(=O)NCc1ccccc1 (stereo unspecified)
GI50 (ACHN): > 100 µM (inactive) | GI50 (CAKI-1): > 100 µM (inactive) | GI50 (CCRF-CEM): > 100 µM (inactive) | GI50 (HOP-62): > 100 µM (inactive) | GI50 (KM12): > 100 µM (inactive) | GI50 (MOLT-4): > 100 µM (inactive) | GI50 (OVCAR-3): > 100 µM (inactive) | GI50 (OVCAR-4): > 100 µM (inactive) | GI50 (OVCAR-8): > 100 µM (inactive) | GI50 (SK-MEL-28): > 100 µM (inactive) | GI50 (SK-MEL-5): > 100 µM (inactive) | GI50 (SN12C): > 100 µM (inactive) | GI50 (SNB-19): > 100 µM (inactive) | GI50 (SNB-75): 43.4 µM (inactive) | GI50 (TK-10): > 100 µM (inactive) | GI50 (U-251): > 100 µM (inactive)

[O-][Cl+3]([O-])([O-])[O-].c1ccc(-c2csc3c4ccccc4c4ccccc4[n+]23)cc1
GI50 (ACHN): 10.2 µM (inactive) | GI50 (CAKI-1): 7.5 µM (inactive) | GI50 (CCRF-CEM): 2.25 µM (inactive) | GI50 (HOP-62): 7.1 µM (inactive) | GI50 (KM12): 1.47 µM (inactive) | GI50 (MOLT-4): 2.18 µM (inactive) | GI50 (OVCAR-3): 0.897 µM (active) | GI50 (OVCAR-4): 3.96 µM (inactive) | GI50 (OVCAR-8): 2.59 µM (inactive) | GI50 (SK-MEL-28): 2.7 µM (inactive) | GI50 (SK-MEL-5): 0.971 µM (active) | GI50 (SN12C): 1.65 µM (inactive) | GI50 (SNB-19): 2.15 µM (inactive) | GI50 (SNB-75): 2.35 µM (inactive) | GI50 (TK-10): 13.6 µM (inactive) | GI50 (U-251): 2.45 µM (inactive)

COC(=O)C(Cc1nc2ccc(Cl)cc2nc1O)C(=O)C(=O)Nc1cc(C)ccc1C (stereo unspecified)
GI50 (ACHN): > 100 µM (inactive) | GI50 (CAKI-1): > 100 µM (inactive) | GI50 (CCRF-CEM): > 100 µM (inactive) | GI50 (HOP-62): > 100 µM (inactive) | GI50 (KM12): > 100 µM (inactive) | GI50 (MOLT-4): > 100 µM (inactive) | GI50 (OVCAR-3): > 100 µM (inactive) | GI50 (OVCAR-4): > 100 µM (inactive) | GI50 (OVCAR-8): > 100 µM (inactive) | GI50 (SK-MEL-28): > 100 µM (inactive) | GI50 (SK-MEL-5): > 100 µM (inactive) | GI50 (SN12C): > 100 µM (inactive) | GI50 (SNB-19): > 100 µM (inactive) | GI50 (SNB-75): > 100 µM (inactive) | GI50 (TK-10): > 100 µM (inactive) | GI50 (U-251): > 100 µM (inactive)

O=C1c2ccccc2C(=O)c2cc3c(cc21)C[S+]([O-])C3
GI50 (ACHN): > 100 µM (inactive) | GI50 (CAKI-1): > 100 µM (inactive) | GI50 (CCRF-CEM): > 100 µM (inactive) | GI50 (HOP-62): > 100 µM (inactive) | GI50 (KM12): > 100 µM (inactive) | GI50 (MOLT-4): > 100 µM (inactive) | GI50 (OVCAR-3): > 100 µM (inactive) | GI50 (OVCAR-4): > 100 µM (inactive) | GI50 (OVCAR-8): > 100 µM (inactive) | GI50 (SK-MEL-28): > 100 µM (inactive) | GI50 (SK-MEL-5): > 100 µM (inactive) | GI50 (SN12C): 20 µM (inactive) | GI50 (SNB-19): > 100 µM (inactive) | GI50 (SNB-75): > 100 µM (inactive) | GI50 (TK-10): > 100 µM (inactive) | GI50 (U-251): > 100 µM (inactive)

C=C(C)C1CC=C(C)C(O)([C@@]2(O)C[C@H](C(=C)C)CC=C2C)C1 (stereo partly specified)
GI50 (ACHN): 20.3 µM (inactive) | GI50 (CAKI-1): 13.5 µM (inactive) | GI50 (CCRF-CEM): 20.1 µM (inactive) | GI50 (HOP-62): 16.9 µM (inactive) | GI50 (KM12): 19.3 µM (inactive) | GI50 (MOLT-4): 17.8 µM (inactive) | GI50 (OVCAR-3): 13.4 µM (inactive) | GI50 (OVCAR-4): 19 µM (inactive) | GI50 (OVCAR-8): 17.2 µM (inactive) | GI50 (SK-MEL-28): 28.3 µM (inactive) | GI50 (SK-MEL-5): 14.8 µM (inactive) | GI50 (SN12C): 18.3 µM (inactive) | GI50 (SNB-19): 32.1 µM (inactive) | GI50 (SNB-75): 15.4 µM (inactive) | GI50 (TK-10): 33.3 µM (inactive) | GI50 (U-251): 16.7 µM (inactive)
